Legend:
[1] = system: tumor-bearing F344 rats (MatB rat mammary carcinoma); experiment: Lethality (tumor-bearing), toxic deaths; type: in vivo; details: for toxic deaths (of animals treated): tumor-bearing
Protocol: (§1) In order to help clarify the relative efficacies and toxicities of (S)-IFF and (R)-IFF, the effect of these enantiomers in F344 rats was investigated. Both non-tumor-bearing animals and those bearing a MatB rat mammary carcinoma were used in this study. The relative lethality, bone marrow suppression, weight loss, antitumor activity, and pharmacokinetics were determined for (R)-IFF, (S)-TFF and (R,S)-IFF.
Animal Model and Tumor Cells
(§2) MatB cells are maintained in vitro in α-minimum essential medium (GIBCO, Grand Island, N.Y.) supplemented with 1.3% sodium pyruvate, 2.6% glutamine, 1.3% non-essential amino acids, 10% fetal calf serum, and 100 units/ml gentamicin. Cells are maintained at 37° C. under 5% CO2. A suspension of 5×10^5 cells is injected s.c. into the flanks of female F344 rats weighing 160-200 g. Within 7-10 days, when there is a palpable nodule, the rats are lightly anesthetized with ether, and a single i.v. dose of ifosfamide is injected via the tail vein. The tumor size and animal weights are monitored every other day. On the basis of the conventional rat human dose conversion factor of 1:7 and idealised human body weights and surface areas of 70 kg and 1.5 m^2, the dose of 100 mg/kg in the rat represents approximately 600 mg/m^2 in humans, which is in the general range of clinical single doses, as described by De Kraker, supra. Statistical analysis was performed using an impaired Student's s test or Pearson's .chi.^2 analysis.
There were differences resulting in the presence of a tumor in these animals with regard to the effects of these treatments, and the data are therefore presented for each situation separately.

[2] = CNS toxicity monitoring in 7 female cancer patients; type: in vivo, human; details: racemate 3 g/m^2, 3 h infusion, mesna
Protocol: (§3) In a first investigation, the stereoselective urinary excretion of the parent drug, i.e. racemic ifosfamide, and its metabolites, was investigated. This followed a single dose of ifosfamide in 7 female cancer patients, while monitoring for CNS toxicity.
(§4) Patients received a 3 h infusion of ifosfamide (3 g/m^2) with mesna uroprotection, total urine output was collected for 27 h, and urine samples were analysed by enantioselective gas chromatography, as described by Granvil et al, J.Chromatogr. 622:21-31 (1993).
Since ifosfamide was the sole anti-cancer drug administered for the first chemotherapy cycle, toxicity data were not confounded by the effects of other anti-neoplastic agents.

[3] = system: non-tumor-bearing Fischer 344 rats; experiment: Lethality (non-tumor bearing), within 7-10 days after administration; type: in vivo, Fischer 344 rat
Protocol: Lethality (Non-Tumor Bearing)
The toxicity was assessed by lethality within 7-10 days after administration of (R)-, (S)-, or (R,S)-ifosfamide in non-tumor-bearing Fischer 344 rats.

[4] = system: childhood rhabdomyosarcoma (HxRh28); details: immunoincompetent female CBA/CaJ mice; cited from earlier work
[5] = cited from earlier work
[6] = system: WBC; experiment: Bone marrow suppression, WBC counts; type: in vivo, Fischer (F344) rat; details: for myelosuppression (WBC): 1 week after 125 mg/kg i.v.
Protocol: (§5) FIGS. 1A and 1B show peripheral blood counts obtained in tumor-bearing rats that received saline or ifosfamide treatment. […] There were 3-5 animals in each group. The following abbreviations etc. apply:
(§6) Determination of Myelotoxicity
(§7) For the studies of myelotoxicity, at least three animals/groups had blood obtained by cardiac puncture with a 23-gauge needle. The samples were heparinized and both WBC and platelet counts were determined using a Coulter Counter.
(§8) Measurements were made prior to and 1 week after i.v. injection of 125 mg/kg of (R,S)-, (R)-, or (S)-ifosfamide. […] In the presence of a tumor, the effects of a colony-stimulating factor are evidenced by higher WBC even prior to drug administration. Because the WBC progressively rises over time with exposure to the tumor, the intergroup variation in absolute WBC relates to differences in time from tumor inoculation to baseline WBC measurement and then drug administration.

[7] = single dose; cited from earlier work
[8] = system: platelets; experiment: Bone marrow suppression, platelet counts; type: in vivo, Fischer (F344) rat; details: for thrombocytopenia: 1 week after 125 mg/kg i.v.
Protocol: as §5, §6, §7, §8

[9] = Weight loss, every-other-day measurements; type: in vivo, F344 rat; details: 125 mg/kg
Protocol: as §2
Weight loss was determined by every-other-day measurements of groups of at least three rats.

[10] = Incubation with human liver microsomes, 2 and 3-dechlorometabolites by chiral assays; type: in vitro ADME; details: for 2 and 3-dechloro metabolites produced, R and S-ifosfamide incubated separately: separate enantiomers, compared with racemate results
[11] = Pharmacokinetics in rat plasma (GC-MS), AUC
[12] = system: MatB rat mammary carcinoma; experiment: Antitumor efficacy in rats, enantiomer comparison; type: in vivo, Fischer (F344) rat; details: R-isomer; summary statement
Protocol: as §1
as §2, with “Statistical analysis was performed using an impaired Student's s test or Pearson's .chi.^2 analysis.” left out

[13] = CBA/CaJ mice; cited from earlier work
[14] = Analysis of urine of 11 patients after 3 hour infusion of racemic ifosfamide; type: in vivo, human
Protocol: This is based on the results of the analysis of the urine of 11 patients who received a 3 hour infusion of racemic ifosfamide. Patients had not received chemotherapy for a year and ifosfamide was the only drug administered during the pharmacokinetic study.

[15] = Stereoselective urinary excretion of ifosfamide and metabolites in 7 female cancer patients; type: in vivo, human; details: patient with severe neurotoxicity vs 6 others
Protocol: as §3, §4
In patients with excessive N-dechloroethylation, R-ifosfamide could have an improved efficacy/toxicity.

[16] = system: MatB subline selected for resistance to nitrogen mustards; experiment: Melphalan resistance of MatB subline in vivo; design: species or system rat

## O=P1(NCCCl)OCCCN1CCCl (racemic) [(R,S)-IFF, ifosfamide, reference compound]
[1]; 100 mg/kg
  toxic deaths (of animals treated): 0 of 5
[1]; 125 mg/kg
  toxic deaths (of animals treated): 4 of 10
[1]; 150 mg/kg
  toxic deaths (of animals treated): 5 of 5
[2]; 7 female patients
  severe neurotoxic syndrome (patients): One patient had a severe neurotoxic syndrome
[2]; one patient
  neurotoxic symptoms: somnolence, dizziness, lethargy, tremors, and hallucinations
[3]; 150 mg/kg
  lethality (rats dead of rats treated): 2 of 4
[3]; 100 and 125 mg/kg
  lethality (rats dead of rats treated): 1 of 5
[4]
  efficacy against HxRh28 xenograft, difference between stereoisomers: no statistically significant differences
[5]; oral formulation
  CNS side-effects: major dose-limiting side-effect
[5]; oral vs iv
  dose at which CNS side-effects appeared, oral versus iv: much lower dose
[5]; oral
  chloroacetaldehyde levels after oral dosing: higher levels of chloroacetaldehyde
  metabolism after oral dosing: much more metabolism
[6]; tumor-bearing rats
  myelosuppression (WBC): significant myelosuppression
[6]; tumor-free rats
  myelosuppression (WBC): myelosuppression is observed
[7]
  compound metabolised through the N-dechloroethylation pathway: 15-50%
  drug excreted unchanged: 20-40%
[8]; non-tumor-bearing rats
  thrombocytopenia: significant thrombocytopenia

## O=[P@]1(NCCCl)OCCCN1CCCl [(R)-IFF, dexifosfamide]
[1]; 125 mg/kg, chi-square
  toxic deaths, compared to (R,S)-IFF: no difference
[1]; 125 mg/kg, chi-square, P=0.017
  toxic deaths, (R)-IFF compared to (S)-IFF: significant difference
[1]; 150 mg/kg, P=0.067
  toxic deaths, (R)-IFF versus either (S)-IFF or (R,S)-IFF: no significant difference
[1]; 100 mg/kg
  toxic deaths (of animals treated): 1 of 5
[1]; 125 mg/kg
  toxic deaths (of animals treated): 5 of 10
[1]; 150 mg/kg
  toxic deaths (of animals treated): 5 of 5
[9]
  weight loss: appears greatest
  weight loss, statistical significance: significantly so only at one time point
[10]
  2 and 3-dechloro metabolites produced, R and S-ifosfamide incubated separately: broadly the same
[11]; rat
  clearance compared to (S)-IFF: cleared more quickly
[11]; rat plasma, 100 mg/kg i.v.
  AUC, AUCRS versus AUCR: no statistically significant difference
[11]; rat plasma, 100 mg/kg i.v., P<0.01
  AUC, AUCR versus AUCS: statistically significant differences
[11]; rat, inferred from AUC
  metabolism via the activation pathway, compared to (S)-IFF: metabolized to a greater degree
[3]; 150 mg/kg
  lethality (rats dead of rats treated): 2 of 4
[3]; 100 and 125 mg/kg, listed as (R)-ifosfamide
  lethality (rats dead of rats treated): 1 of 5
[4]
  efficacy against HxRh28 xenograft, difference between stereoisomers: no statistically significant differences
[6]; summary statement
  myelotoxicity in the Fischer rat: more myelotoxic
[6]; tumor-bearing rats
  myelosuppression (WBC): significant myelosuppression
[6]; tumor-free rats
  myelosuppression (WBC): myelosuppression is observed
[8]; non-tumor-bearing rats, 125 mg/kg i.v., P<0.05
  platelet suppression compared to (R,S)- or (S)-ifosfamide: greater platelet suppression
[8]; non-tumor-bearing rats
  thrombocytopenia: significant thrombocytopenia
[12]
  effectiveness in treating the tumors in the rats: trend to the R-isomer being more effective

## O=[P@@]1(NCCCl)OCCCN1CCCl [(S)-IFF, levoifosfamide]
[1]; 125 mg/kg, chi-square
  toxic deaths, compared to (R,S)-IFF: no difference
[1]; 100 mg/kg
  toxic deaths (of animals treated): 0 of 5
[1]; 125 mg/kg
  toxic deaths (of animals treated): 2 of 10
[1]; 150 mg/kg, listed as (S)-ifosfamide
  toxic deaths (of animals treated): 3 of 5
[10]; racemic ifosfamide incubated
  2 and 3-dechloro metabolites produced, compared to R-ifosfamide: greater amounts
[10]
  2 and 3-dechloro metabolites produced, R and S-ifosfamide incubated separately: broadly the same
[11]; stated with the rat AUC results
  metabolism via N-dechloroethylation, compared to (R)-IFF: metabolized to a greater extent
[13]
  plasma pharmacokinetics, differences: No statistically significant differences
[3]; 150 mg/kg
  lethality (rats dead of rats treated): 0 of 4
[3]; 100 and 125 mg/kg, listed as (S)-ifosfamide
  lethality (rats dead of rats treated): 0 of 5
[4]
  efficacy against HxRh28 xenograft, difference between stereoisomers: no statistically significant differences
[6]; tumor-bearing rats
  myelosuppression (WBC): no such effect after (S)-IFF where the WBC is higher
[6]; tumor-free rats
  myelosuppression (WBC): not statistically significant
[8]; non-tumor-bearing rats
  thrombocytopenia: significant thrombocytopenia
[8]; tumor-bearing rats, 125 mg/kg i.v.
  platelet suppression compared to (R)- or (R,S)-ifosfamide: significantly less
[14]
  origin of side-chain metabolites in urine: side-chain metabolites come from S-ifosfamide more than from R-ifosfamide
[15]
  excretion of dechloroethylated metabolites from S-ifosfamide: much higher excretion

## N[C@@H](Cc1ccc(N(CCCl)CCCl)cc1)C(=O)O [melphalan]
[16]
  resistance to melphalan: at least 4 fold

Source: patent publication US6037337A (priority 1994, dated 2000)
